According to ChEMBL document CHEMBL4334438, “Discovery of novel glycogen synthase kinase-3α inhibitors: Structure-based virtual screening, preliminary SAR and biological evaluation for treatment of acute myeloid leukemia” (Eur J Med Chem, 2019):
The source made the active and inactive calls. No cut-off for these calls is given here.

What was measured:
[1] = target: Casein kinase I isoform alpha (Homo sapiens) (UniProt P48729); assay: Inhibition of recombinant human CK1alpha expressed in Escherichia coli assessed as residual activity at 1 uMu sing CK1 peptide as substrate preincubated for 15 mins followed by substrate addition and measured after 30 mins in presence of [gamma-33ATP] by scintillation counting method relative to control; conditions: 1 uM
NB-4 [2] = assay: Inhibition of colony formation in human NB4 cells preincubated for 72 hrs followed by compound washout and measured after 7 to 10 days; assay type: functional, cell-based
[3] = target: Transcription initiation factor TFIID subunit 1-like (Homo sapiens) (UniProt Q8IZX4); assay: Inhibition of human TAF1L (1428 to end residues) assessed as residual activity at 1 uM using RRRFRPASPLRGPPK as substrate measured after 120 mins in presence of [gamma33P]ATP by scintillation counting method relative to control
Chain of Transcription initiation factor TFIID subunit 1-like (Homo sapiens) (Q8IZX4 whole entry): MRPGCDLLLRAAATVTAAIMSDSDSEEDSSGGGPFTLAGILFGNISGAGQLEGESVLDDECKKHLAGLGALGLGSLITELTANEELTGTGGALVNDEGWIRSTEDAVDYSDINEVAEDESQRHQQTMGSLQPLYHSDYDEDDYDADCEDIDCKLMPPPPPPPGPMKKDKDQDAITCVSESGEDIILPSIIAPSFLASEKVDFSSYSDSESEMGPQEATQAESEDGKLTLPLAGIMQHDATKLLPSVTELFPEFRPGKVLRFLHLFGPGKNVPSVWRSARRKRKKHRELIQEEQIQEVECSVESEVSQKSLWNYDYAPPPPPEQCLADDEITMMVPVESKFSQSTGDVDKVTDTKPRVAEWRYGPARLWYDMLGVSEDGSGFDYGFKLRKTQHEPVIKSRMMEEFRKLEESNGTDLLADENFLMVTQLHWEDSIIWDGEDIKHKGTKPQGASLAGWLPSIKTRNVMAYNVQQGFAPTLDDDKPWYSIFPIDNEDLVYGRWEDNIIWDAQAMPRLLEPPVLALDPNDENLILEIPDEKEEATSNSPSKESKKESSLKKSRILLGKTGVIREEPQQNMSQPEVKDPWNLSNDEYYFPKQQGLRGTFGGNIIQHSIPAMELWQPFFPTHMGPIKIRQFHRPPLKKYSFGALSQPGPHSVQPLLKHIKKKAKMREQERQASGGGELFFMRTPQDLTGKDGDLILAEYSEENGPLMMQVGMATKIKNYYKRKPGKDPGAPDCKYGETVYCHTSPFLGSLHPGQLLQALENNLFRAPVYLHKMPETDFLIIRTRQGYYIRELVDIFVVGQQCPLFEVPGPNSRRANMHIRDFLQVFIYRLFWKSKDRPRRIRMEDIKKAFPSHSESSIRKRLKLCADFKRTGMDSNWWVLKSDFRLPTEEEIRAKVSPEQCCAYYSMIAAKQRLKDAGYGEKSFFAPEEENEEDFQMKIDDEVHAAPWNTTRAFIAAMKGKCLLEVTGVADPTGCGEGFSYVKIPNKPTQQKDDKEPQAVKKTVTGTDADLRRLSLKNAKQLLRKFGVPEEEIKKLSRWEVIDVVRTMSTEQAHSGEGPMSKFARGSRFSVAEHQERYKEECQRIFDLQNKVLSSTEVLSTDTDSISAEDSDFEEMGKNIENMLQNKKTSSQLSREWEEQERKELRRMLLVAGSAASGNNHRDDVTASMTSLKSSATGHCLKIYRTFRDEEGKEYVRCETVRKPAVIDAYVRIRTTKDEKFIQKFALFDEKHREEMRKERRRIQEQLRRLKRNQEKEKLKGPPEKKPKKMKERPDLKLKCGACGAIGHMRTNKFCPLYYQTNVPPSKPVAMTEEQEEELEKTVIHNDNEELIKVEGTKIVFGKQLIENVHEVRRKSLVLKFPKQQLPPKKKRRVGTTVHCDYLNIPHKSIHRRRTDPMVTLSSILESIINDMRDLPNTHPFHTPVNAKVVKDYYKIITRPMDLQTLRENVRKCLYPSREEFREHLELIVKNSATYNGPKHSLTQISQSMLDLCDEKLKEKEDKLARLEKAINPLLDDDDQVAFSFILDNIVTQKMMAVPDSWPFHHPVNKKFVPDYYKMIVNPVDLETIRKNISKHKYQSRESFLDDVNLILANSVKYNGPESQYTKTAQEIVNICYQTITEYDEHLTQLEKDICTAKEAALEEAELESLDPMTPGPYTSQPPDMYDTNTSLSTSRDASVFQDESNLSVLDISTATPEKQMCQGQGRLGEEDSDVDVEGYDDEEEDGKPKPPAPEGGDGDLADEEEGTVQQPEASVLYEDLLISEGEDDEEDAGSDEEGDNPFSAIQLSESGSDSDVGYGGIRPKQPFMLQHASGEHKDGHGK

HL-60 [4] = assay: Antiproliferative activity against human HL60 cells assessed as reduction in viability after 3 days by SRB assay; assay type: functional, cell-based
[5] = tested on: Serine/threonine-protein kinase 38 (NDR1); assay: Inhibition of recombinant human NDR1 assessed as residual activity at 1 uM relative to control
[6] = target: Serine/threonine-protein kinase DCLK1 (Homo sapiens) (UniProt O15075); assay: Inhibition of recombinant human DCAMKL1 assessed as residual activity at 1 uM radiometric assay relative to control
Chain of Serine/threonine-protein kinase DCLK1 (Homo sapiens) (O15075 whole entry): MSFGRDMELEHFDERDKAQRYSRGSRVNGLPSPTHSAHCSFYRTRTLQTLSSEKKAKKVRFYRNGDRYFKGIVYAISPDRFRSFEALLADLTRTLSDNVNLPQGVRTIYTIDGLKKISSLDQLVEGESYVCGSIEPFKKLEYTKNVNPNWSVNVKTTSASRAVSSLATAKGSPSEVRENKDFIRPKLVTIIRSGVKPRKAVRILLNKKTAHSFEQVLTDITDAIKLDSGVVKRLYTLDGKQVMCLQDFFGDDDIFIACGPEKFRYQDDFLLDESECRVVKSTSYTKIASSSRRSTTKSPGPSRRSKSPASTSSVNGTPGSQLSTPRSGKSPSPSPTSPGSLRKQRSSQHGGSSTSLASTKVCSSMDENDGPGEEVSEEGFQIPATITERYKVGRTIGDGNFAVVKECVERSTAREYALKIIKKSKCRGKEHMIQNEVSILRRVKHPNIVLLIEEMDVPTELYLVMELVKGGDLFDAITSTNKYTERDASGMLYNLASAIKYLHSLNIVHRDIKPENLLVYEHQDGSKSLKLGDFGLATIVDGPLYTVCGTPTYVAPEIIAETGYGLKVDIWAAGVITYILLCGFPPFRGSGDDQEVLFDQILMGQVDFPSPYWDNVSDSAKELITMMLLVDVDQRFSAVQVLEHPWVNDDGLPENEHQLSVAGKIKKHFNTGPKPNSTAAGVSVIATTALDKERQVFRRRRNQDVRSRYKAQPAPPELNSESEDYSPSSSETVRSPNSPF

[7] = Activation of wnt/beta-catenin signalling pathway in human NB4 cells assessed as stabilization of beta-catenin at 1 to 30 uM after 24 hrs by Western blot analysis; assay type: cell-based
[8] = target: Citron Rho-interacting kinase (Homo sapiens) (UniProt O14578); assay: Inhibition of recombinant human CRIK assessed as residual activity at 1 uM KKLRRTLSVA as substrate incubated 120 mins by scintillation counting method relative to control
[9] = tested on: Dual specificity protein kinase TTK (Homo sapiens), P33981 [S389A]; assay: Inhibition of recombinant full-length human TTK S389A mutant at 1 uM assessed as residual activity at 1 uM using MBP as substrate measured after 40 mins in presence of [gamma33P]ATP by scintillation counting method relative to control
[10] = target: Serine/threonine-protein kinase OSR1 (Homo sapiens) (UniProt O95747); assay: Inhibition of recombinant human OSR1 assessed as residual activity at 1 uM relative to control
NB-4 [11] = assay: Induction of cell death in human NB4 cells at 10 to 30 uM after 6 days by trypan blue assay; assay type: cell-based; conditions: nb-4, 144 h
[12] = target: Mitogen-activated protein kinase kinase kinase 21 (Homo sapiens) (UniProt Q5TCX8); assay: Inhibition of recombinant human MLK4 assessed as residual activity at 1 uM using by radiometry assay relative to control
[13] = target: AP2-associated protein kinase 1 (Homo sapiens) (UniProt Q2M2I8); assay: Inhibition of human AAK1 assessed as residual activity at 1 uM using peptide as substrate incubated for 120 mins in presence of [gamma-33ATP] by scintillation counting based radiometry assay relative to control
[14] = target: Tyrosine-protein kinase ABL2 (Homo sapiens) (UniProt P42684); assay: Inhibition of human Arg (38 to end residues) assessed as residual activity at 1 uM using EAIYAAPFAKKK as substrate incubated for 40 mins in presence of [gamma-33ATP] by scintillation counting based radiometry assay relative to control
Chain of Tyrosine-protein kinase ABL2 (Homo sapiens) (P42684 whole entry): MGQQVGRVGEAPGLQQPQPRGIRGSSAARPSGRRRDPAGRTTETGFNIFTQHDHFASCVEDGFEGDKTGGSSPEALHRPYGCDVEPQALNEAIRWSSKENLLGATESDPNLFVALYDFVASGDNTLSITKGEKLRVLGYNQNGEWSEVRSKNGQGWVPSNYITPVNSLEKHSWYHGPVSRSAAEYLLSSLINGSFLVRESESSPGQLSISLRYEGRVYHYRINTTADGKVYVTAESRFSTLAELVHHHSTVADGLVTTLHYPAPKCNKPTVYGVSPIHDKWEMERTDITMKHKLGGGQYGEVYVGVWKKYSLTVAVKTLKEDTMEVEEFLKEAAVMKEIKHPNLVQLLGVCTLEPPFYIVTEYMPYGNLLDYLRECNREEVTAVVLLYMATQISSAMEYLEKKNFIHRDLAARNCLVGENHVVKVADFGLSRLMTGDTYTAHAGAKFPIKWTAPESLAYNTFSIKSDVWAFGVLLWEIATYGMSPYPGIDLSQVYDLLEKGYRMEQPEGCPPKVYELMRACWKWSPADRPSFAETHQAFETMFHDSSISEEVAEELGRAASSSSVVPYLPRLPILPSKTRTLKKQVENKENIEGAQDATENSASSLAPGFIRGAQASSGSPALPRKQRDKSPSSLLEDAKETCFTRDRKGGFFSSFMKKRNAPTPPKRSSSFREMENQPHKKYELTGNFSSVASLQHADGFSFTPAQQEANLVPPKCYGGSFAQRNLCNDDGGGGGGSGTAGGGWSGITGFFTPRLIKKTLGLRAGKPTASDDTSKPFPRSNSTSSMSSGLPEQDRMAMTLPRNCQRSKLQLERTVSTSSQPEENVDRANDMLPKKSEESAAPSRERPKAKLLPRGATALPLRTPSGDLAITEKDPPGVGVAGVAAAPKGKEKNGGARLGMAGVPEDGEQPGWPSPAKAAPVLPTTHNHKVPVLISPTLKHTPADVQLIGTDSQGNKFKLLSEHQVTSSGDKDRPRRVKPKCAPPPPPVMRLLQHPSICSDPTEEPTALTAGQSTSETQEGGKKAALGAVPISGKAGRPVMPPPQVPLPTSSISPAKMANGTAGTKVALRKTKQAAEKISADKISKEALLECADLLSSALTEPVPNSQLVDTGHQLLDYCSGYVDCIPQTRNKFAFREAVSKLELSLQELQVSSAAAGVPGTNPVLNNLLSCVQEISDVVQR

[15] = Activation of wnt/beta-catenin signalling pathway in human HL60 cells assessed as stabilization of beta-catenin at 1 to 30 uM after 24 hrs by Western blot analysis; assay type: cell-based
HL-60 [16] = assay: Induction of monocytic differentiation in human HL60 cells assessed as increase in CD14-FITC positive cells at 30 uM after 6 days by flow cytometry analysis; assay type: functional, cell-based
[17] = target: BMP-2-inducible protein kinase (Homo sapiens) (UniProt Q9NSY1); assay: Inhibition of recombinant human BIKe assessed as residual activity at 1 uM using peptide as substrate incubated for 120 mins in presence of [gamma-33ATP] by scintillation counting based radiometry assay relative to control
[18] = target: Cyclin-Y/Cyclin-dependent kinase 16 (Homo sapiens) (UniProt Q00536+Q8ND76); assay: Inhibition of recombinant full length human CDK16/cyclinY assessed as residual activity at 1 uM using PKSPKARKKL as substrate incubated for 120 mins in presence of [gamma-33ATP] by scintillation counting based radiometry assay relative to control; assay type: protein-complex assay
NB-4 [19] = assay: Induction of monocytic differentiation in human NB4 cells assessed as increase in CD11c-APC positive cells at 30 uM after 6 days by flow cytometry analysis; assay type: functional, cell-based
HL-60 [20] = assay: Induction of cell differentiation in human HL60 cells assessed as increase in CD11b-APC-Cy7 positive cells after 6 days by flow cytometry analysis; assay type: functional, cell-based
[21] = target: Casein kinase I isoform epsilon (Homo sapiens) (UniProt P49674); assay: Inhibition of recombinant human CK1epsilon assessed as residual activity at 1 uM using KRRRALS(p)VASLPGL as substrate incubated for 120 mins in presence of [gamma-33ATP] by scintillation counting based radiometry assay relative to control
NB-4 [22] = assay: Antiproliferative activity against human NB4 cells assessed as reduction in viability after 3 days by SRB assay; assay type: functional, cell-based
HL-60 [23] = assay: Induction of monocytic differentiation in human HL60 cells assessed as increase in CD11b-APC-Cy7 positive cells at 30 uM after 6 days by flow cytometry analysis; assay type: functional, cell-based
HL-60 [24] = assay: Induction of monocytic differentiation in human HL60 monocytic assessed as increase in CD11c-APC positive cells at 30 uM after 6 days by flow cytometry analysis; assay type: functional, cell-based
NB-4 [25] = assay: Induction of cell differentiation in human NB4 cells assessed as increase in CD11c-APC positive cells after 6 days by flow cytometry analysis; assay type: functional, cell-based
[26] = target: Macrophage-stimulating protein receptor (Homo sapiens) (UniProt Q04912); assay: Inhibition of recombinant human Ron (983 to end residues) assessed as residual activity at 1 uM using GGMEDIYFEFMGGKKK as substrate measured after 40 mins in presence of [gamma33P]ATP by scintillation counting method relative to control
Chain of Macrophage-stimulating protein receptor (Homo sapiens) (Q04912 25-304 limits assumed): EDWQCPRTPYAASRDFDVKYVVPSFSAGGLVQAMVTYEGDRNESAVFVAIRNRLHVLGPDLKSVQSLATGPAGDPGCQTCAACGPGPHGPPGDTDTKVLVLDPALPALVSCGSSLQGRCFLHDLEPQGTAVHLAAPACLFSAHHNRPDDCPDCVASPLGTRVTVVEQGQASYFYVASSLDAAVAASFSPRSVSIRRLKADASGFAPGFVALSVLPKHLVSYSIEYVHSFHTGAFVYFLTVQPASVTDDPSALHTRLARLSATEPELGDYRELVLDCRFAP
Chain of Macrophage-stimulating protein receptor (Homo sapiens) (Q04912 310-1400 limits assumed): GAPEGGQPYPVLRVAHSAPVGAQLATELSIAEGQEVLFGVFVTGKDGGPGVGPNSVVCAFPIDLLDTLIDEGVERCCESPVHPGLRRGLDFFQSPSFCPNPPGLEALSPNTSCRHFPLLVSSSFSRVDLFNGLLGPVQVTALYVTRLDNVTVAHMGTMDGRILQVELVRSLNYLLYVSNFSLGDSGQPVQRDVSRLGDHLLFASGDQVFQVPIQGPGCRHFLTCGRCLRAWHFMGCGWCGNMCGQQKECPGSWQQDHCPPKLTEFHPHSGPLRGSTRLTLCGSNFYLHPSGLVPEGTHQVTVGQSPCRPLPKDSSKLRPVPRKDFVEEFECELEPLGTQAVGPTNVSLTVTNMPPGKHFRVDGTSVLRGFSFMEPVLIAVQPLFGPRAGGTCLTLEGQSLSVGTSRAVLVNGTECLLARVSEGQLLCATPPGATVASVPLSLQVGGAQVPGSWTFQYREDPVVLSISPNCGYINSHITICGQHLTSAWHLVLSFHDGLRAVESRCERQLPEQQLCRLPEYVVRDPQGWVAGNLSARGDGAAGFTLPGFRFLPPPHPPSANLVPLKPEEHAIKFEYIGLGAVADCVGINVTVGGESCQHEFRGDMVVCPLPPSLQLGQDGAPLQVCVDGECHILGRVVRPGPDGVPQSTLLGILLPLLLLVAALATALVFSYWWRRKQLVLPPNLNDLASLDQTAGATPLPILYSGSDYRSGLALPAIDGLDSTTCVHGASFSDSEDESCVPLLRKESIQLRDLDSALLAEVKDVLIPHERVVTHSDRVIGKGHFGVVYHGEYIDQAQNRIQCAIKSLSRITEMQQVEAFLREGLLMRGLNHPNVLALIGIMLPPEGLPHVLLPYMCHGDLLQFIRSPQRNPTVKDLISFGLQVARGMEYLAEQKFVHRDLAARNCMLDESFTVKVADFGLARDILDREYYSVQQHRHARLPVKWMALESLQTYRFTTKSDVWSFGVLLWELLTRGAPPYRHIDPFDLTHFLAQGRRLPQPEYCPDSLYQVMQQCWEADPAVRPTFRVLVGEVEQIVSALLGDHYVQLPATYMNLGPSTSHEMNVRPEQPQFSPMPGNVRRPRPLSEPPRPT

HL-60 [27] = assay: Induction of cell differentiation in human HL60 cells assessed as increase in CD11c-APC positive cells after 6 days by flow cytometry analysis; assay type: functional, cell-based
HL-60 [28] = assay: Induction of cell differentiation in human HL60 cells assessed as increase in CD14-FITC positive cells after 6 days by flow cytometry analysis; assay type: functional, cell-based
[29] = target: Glycogen synthase kinase-3 alpha (Homo sapiens, UniProt P49840); assay: Inhibition of GSK-3alpha phosphorylation at Y279 residue in human NB4 cells after 24 hrs by Western blot analysis; assay type: cell-based
NB-4 [30] = assay: Induction of cell differentiation in human NB4 cells assessed as increase in CD11b-APC-Cy7 positive cells after 6 days by flow cytometry analysis; assay type: functional, cell-based
[31] = target: CDK17/Cyclin-Y (Homo sapiens) (UniProt Q00537+Q8ND76); assay: Inhibition of recombinant full length human CDK17/cyclinY assessed as residual activity at 1 uM using PKSPKARKKL as substrate incubated for 120 mins in presence of [gamma-33ATP] by scintillation counting based radiometry assay relative to control; assay type: protein-complex assay

## C=CCOC(=O)c1cc(-c2ccc(/C=C3/NC(=S)NC3=O)o2)ccc1Cl
[1]
  Activity: 96%
NB-4 [2]
  inhibition: Dose-dependent effect
[3]
  Activity: 66%
HL-60 [4]
  Activity: Dose-dependent effect
[5]
  Activity: 99%
[6]
  Activity: 85%
[7]
  Activity: Not Active
[8]
  Activity: 95%
[9]
  Activity: 92%
[10]
  Activity: 118%
NB-4 [11]
  Activity: Non-Toxic
[12]
  Activity: 95%
[13]
  Activity: 101%
[14]
  Activity: 107%
[15]
  Activity: Not Active
HL-60 [16]
  Activity: Active
[17]
  Activity: 111%
[18]
  Activity: 82%
NB-4 [19]
  Activity: Active
HL-60 [20]
  Activity: Dose-dependent effect
[21]
  Activity: 91%
NB-4 [22]
  Activity: Dose-dependent effect
HL-60 [23]
  Activity: Active
HL-60 [24]
  Activity: Active
NB-4 [25]
  Activity: Dose-dependent effect
[26]
  Activity: 106%
HL-60 [27]
  Activity: Dose-dependent effect
HL-60 [28]
  Activity: Dose-dependent effect
[29]
  inhibition: Dose-dependent effect
NB-4 [30]
  Activity: Dose-dependent effect
[31]
  Activity: 72%

## N=C1NC(=O)/C(=C\c2ccc(-c3cccc([N+](=O)[O-])c3)o2)S1
[3]
  Activity: 51%
[9]
  Activity: 98%
[14]
  Activity: 87%
[26]
  Activity: 104%
